The values that follow are results of earlier work, collected in patent US20130197188A1 (priority 2010, published 2013).

Data set [1] relates to patients with chronic congestive heart failure. Conditions: 15 ng/kg/min, 10-hour infusion; loss of action during infusion.
For data set [2], the system named is patients with acute decompensated heart failure (ADHF).
Data set [3] deals with patients with moderate asthma affliction. Particulars: brief infusion; healthy and diseased subjects.

urodilatin: in data set [1], the “central venous pressure (CVP)” value is on record as “increases slightly already after 5 hours of infusion” and the urine flow result is “loss of action after 8 hours of infusion”. The “changes of the baseline in pulmonary capillary wedge pressure (PCWP)” value in data set [2] (15+30 ng/kg/min, compared with the placebo group, FIG. 4A) was “significant reductions”. Moreover, the “changes of the cardiac index (CI)” value in data set [2] (15 and 30 ng/kg/min, FIG. 4C) was “significant increase”. Besides, the “persistence of the effect on PCWP and CI (rebound)” value in data set [2] (during infusion, slight increase of PCWP and partial drop of CI) was “slightly reversed after 6 to 8 hours”. Besides, the “symptoms, morbidity and mortality” value in data set [2] (for all doses) is recorded as “significantly improved”. For the same substance, in data set [2] (intermediate dose applied), the “therapeutic window (dose)” value is listed as “about 15 ng/kg/min”. The effect on bronchoconstriction entry in data set [3] is given as “biologically relevant effectiveness”.
